Reference: US7459414B2, “Herbicides” (Syngenta Crop Protection, Inc., priority 2002, dated 2008)

Assays:
Assay in all cases: Example B4 post-emergence herbicidal action, MERGE oil additive 0.7% (Table B4)
Format in all cases: in vivo
Design in all cases: key: 1=total damage; 9=no action
Settings in all cases: 500 g of active substance per hectare; applied at 3- to 6-leaf stage; MERGE oil additive 0.7% by weight of the spray mixture; evaluation 3 weeks after application; scale of nine ratings
[1] = tested on: Setaria (Set)
Protocol: (§1) Monocotyledonous and dicotyledonous weeds are grown in standard soil in plastics pots under greenhouse conditions. The test substances are applied to the test plants at the 3- to 6-leaf stage. The test substances are applied at a rate of application of 500 g of active substance per hectare in the form of an aqueous suspension (prepared from a 25% wettable powder (Example F3, b)) or in the form of an emulsion (prepared from a 25% emulsifiable concentrate (Example F1, c)) (500 liters of water/ha). The evaluation is carried out 3 weeks after application, using a scale of nine ratings (1=total damage, 9=no action). Ratings of from 1 to 4 (especially from 1 to 3) indicate good to very good herbicidal action. Herbicidal Action After the Emergence of the Plants (Post-emergence Action) of Compounds of the Present Invention (for Description See Example B2) Test plants: Avena (Ave), Lolium (Lol), Setaria (Set).

[2] = tested on: Avena (Ave)
Protocol: as §1

[3] = tested on: Lolium (Lol)
Protocol: as §1

Compound	Post-emergence action, rating, Set [1]	Post-emergence action, rating, Ave [2]	Post-emergence action, rating, Lol [3]
CCc1cc(C)cc(CC)c1-c1c(OC(=O)C(C)(C)C)n2n(c1=O)CC(O)C(O)C2 (stereo not drawn) [1.40]	2	1	1
CCc1cc(C)cc(CC)c1-c1c(O)n2n(c1=O)CC(OC(C)C)CC2 (stereo not drawn) [1.14]	2	1	2
CCc1cc(C)cc(CC)c1-c1c(OC(=O)C(C)(C)C)n2n(c1=O)CCC(F)(F)CC2 [1.43]	2	1	2
CCc1cc(C)cc(CC)c1-c1c(OC(=O)C(C)(C)C)n2n(c1=O)CC(OC)C(OC)C2 (stereo not drawn) [1.08]	1	1	1
CCc1cc(C)cc(CC)c1-c1c(O)n2n(c1=O)CC(OCCO)CC2 (stereo not drawn) [1.17]	2	1	1
CCc1cc(C)cc(CC)c1-c1c(O)n2n(c1=O)CC(O)C(O)C2 (stereo not drawn) [1.39]	1	1	1
CCc1cc(C)cc(CC)c1-c1c(O)n2n(c1=O)CC(OCC(C)C)CC2 (stereo not drawn) [1.11]	1	1	1
CCc1cc(C)cc(CC)c1-c1c(O)n2n(c1=O)CC(OCC(=O)OC)CC2 (stereo not drawn) [1.23]	1	1	1
